Test results taken from patent publication US20050272707A1, “Method for preventing or reducing secondary fractures after hip fracture” (priority 2002, published 2005).
Entries after “also recorded” stand apart in the source; their conditions may differ.

How the values were obtained:
bone resorption [1] = conditions: cited from earlier work
[2] = system: subsequent osteoporotic fractures after hip fracture; assay: placebo-controlled study of intravenous zoledronic acid in preventing subsequent osteoporotic fractures after a hip fracture; format: in vivo, human patients; conditions: patients after recent surgical repair of hip fracture; 5 mg i.v. once per year plus vitamin D and calcium vs vitamin D and calcium alone; 12 and 24 months
From the text: “A Multinational, multicenter, double-blind, randomized, placebo-controlled, parallel-group study assessing the efficacy of intravenous zoledronic acid in preventing subsequent osteoporotic fractures after a hip fracture” is undertaken.
This will be a multicenter, randomized, double-blind, placebo-controlled, parallel group trial in men and women. Patients undergoing recent surgical repair of a low-trauma hip fracture will be eligible for enrollment. There will be at least 3 study contacts with patients after randomization within the first 24 months. Patients will have additional visits annually until 211 patients have reached the primary endpoint. The final visit for patients will be contingent on when this endpoint is achieved. Once the endpoint is achieved all patients will need to come in for a final visit. The final visit will be no less than 30 days from the patient's last dose of study medication or no more than 90 days after the day 211 patients have reached the primary endpoint. […]
The primary efficacy endpoint is time to first clinical fracture. Between treatment differences will be evaluated using a log-rank test to compare the time to clinical fracture between the two treatment groups. […]

bone resorption [3] = conditions: variety of assays of bone metabolism; cited from earlier work
[4] = stability of diluted infusion solution; format: physicochemical; conditions: diluted with infusion media, 2-8° C.
Method: The cumulative time between dilution with infusion media, storage in a refrigerator and end of administration must not be longer than 24 hours. Ideally, diluted zoledronic acid solutions should be used immediately. However, if diluted zoledronic acid solutions cannot be used immediately, the solutions must be refrigerated at temperatures between 2-8° C. Before administration, the solution should be allowed to slowly warm to room temperature again.

O=P(O)(O)C(O)(Cn1ccnc1)P(=O)(O)O [zoledronic acid, 1-hydroxy-2-(imidazol-1-yl)ethane-1,1-diphosphonic acid]
untoward effects on bone formation or mineralization (bone resorption [1]; at 0.3-30 nM in vitro and 0.3-30 μg/kg in vivo): without exerting any untoward effects on either bone formation or mineralization
doses at which inhibition of bone resorption in vivo was demonstrated (bone resorption [1]; in vivo): 0.3 to 30 µg/kg
rate of subsequent (secondary) osteoporotic fractures [2]: significant reduction in secondary osteoporotic fractures; also recorded: significantly reduces the rate of all subsequent osteoporotic skeletal fractures
concentrations at which inhibition of bone resorption in vitro was demonstrated (bone resorption [3]): 0.3 to 30 nM
stability of diluted infusion solutions [4]: at least 24 hours
